Data as given in patent US20260250290A1 (BRISTOL-MYERS SQUIBB COMPANY, priority 2023, published 2026).

Legend:
SGK1 = biological target: T1, SGK1 (Homo sapiens, UniProt O00141); assay: SGK1 inhibition Assay B (Echo mass spectrometry of phosphorylated peptide product); type: biochemical; settings: 60 min at room temperature
T1 sequence (O00141 1-431): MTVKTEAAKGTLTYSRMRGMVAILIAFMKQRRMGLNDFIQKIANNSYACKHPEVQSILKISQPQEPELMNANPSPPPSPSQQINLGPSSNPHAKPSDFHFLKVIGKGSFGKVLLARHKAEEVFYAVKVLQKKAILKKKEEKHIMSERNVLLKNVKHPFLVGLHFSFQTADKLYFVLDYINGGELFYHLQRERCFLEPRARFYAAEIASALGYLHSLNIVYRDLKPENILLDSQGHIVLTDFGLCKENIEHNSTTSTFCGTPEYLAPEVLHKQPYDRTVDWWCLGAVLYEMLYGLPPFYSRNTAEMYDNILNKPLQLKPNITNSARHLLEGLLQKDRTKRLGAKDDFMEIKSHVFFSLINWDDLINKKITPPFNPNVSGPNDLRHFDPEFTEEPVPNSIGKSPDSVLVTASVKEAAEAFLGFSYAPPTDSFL

full length SGK1 = biological target: T2, full length SGK1 (Homo sapiens, UniProt O00141); assay: SGK1 inhibition Assay A (Caliper LabChip electrophoretic separation of fluorescent peptide substrate and phosphorylated product); type: biochemical; settings: Assay A; 20 μM ATP, 40 min incubation; read-out: SGK1 IC50
T2 construct: 125 μM full length SGK1 (Life Technologies Part #PR7358A); purchased Life Technologies PR7358A
T2 sequence (O00141 1-431): T1 sequence (O00141 1-431)

| Compound | IC50 (SGK1) [nM] | IC50 (full length SGK1) [nM] |
| --- | --- | --- |
| Cc1nc(O[C@H]2CC[C@@H](CNCC(C)(C)C)CC2)c(C(=O)N[C@@H]2CCCN(c3cc(-c4ccc(C(N)=O)c(F)c4)n4ncnc(N)c34)C2)s1 [Example 945, N—((R)-1-(4-Amino-7-(4-carbamoyl-3-fluorophenyl)pyrrolo[2,1-f][1,2,4]triazin-5-yl)piperidin-3-yl)-2-methyl-4-(((cis)-4-((neopentylamino)methyl)cyclohexyl)oxy)thiazole-5-carboxamide] | 4 | – |
| COc1nc(-c2cc(N3CCC[C@@H](NC(=O)c4sc(C)nc4OC4CCC(N5CCC5)CC4)C3)c3c(N)ncnn23)ccc1C(N)=O (stereo partly drawn) [Example 1045, (R)—N-(1-(4-amino-7-(5-carbamoyl-6-methoxypyridin-2-yl)pyrrolo[2,1-f][1,2,4]triazin-5-yl)piperidin-3-yl)-4-((4-(azetidin-1-yl)cyclohexyl)oxy)-2-methylthiazole-5-carboxamide] | 0.5 | – |
| Cc1nc(O[C@H]2CC[C@@H](NC3CCOCC3)CC2)c(C(=O)N[C@@H]2CCCN(c3cc(C4=CC(=O)OC4)n4ncnc(N)c34)C2)s1 [Example 1002, N—((R)-1-(4-amino-7-(5-oxo-2,5-dihydrofuran-3-yl)pyrrolo[2,1-f][1,2,4]triazin-5-yl)piperidin-3-yl)-2-methyl-4-(((1S,4S)-4-((tetrahydro-2H-pyran-4-yl)amino)cyclohexyl)oxy)thiazole-5-carboxamide] | 0.3 | – |
| COC(=O)N1CC=C(c2cc(N3CCC[C@@H](NC(=O)c4sc(C)nc4OC4CCNCC4)C3)c3c(N)ncnn23)C1 [Example 359, Methyl (R)-3-(4-amino-5-(3-(2-methyl-4-(piperidin-4-yloxy)thiazole-5-carboxamido)piperidin-1-yl)pyrrolo[2,1-f][1,2,4]triazin-7-yl)-2.5-dihydro-1H-pyrrole-1-carboxylate] | 3 | – |

Further lines, results first:

| IC50 (SGK1) [nM] | IC50 (full length SGK1) [nM] | Compound |
| --- | --- | --- |
| 0.8 | – | CN1CC2CCC1CC2Oc1cc(Cl)sc1C(=O)N[C@@H]1CCCN(c2cc(-c3ccc(=O)n(CC(F)F)c3)n3ncnc(N)c23)C1 (stereo partly drawn) [Example 991, N—((R)-1-(4-amino-7-(1-(2,2-difluoroethyl)-6-oxo-1,6-dihydropyridin-3-yl)pyrrolo[2,1-f][1,2,4]triazin-5-yl)piperidin-3-yl)-5-chloro-3-((2-methyl-2-azabicyclo[2.2.2]octan-5-yl)oxy)thiophene-2-carboxamide] |
| 0.9 | – | Cc1nc(OC2CCC(N3CCC3)CC2)c(C(=O)N[C@@H]2CCCN(c3cc(-c4nc(C(N)=O)cs4)n4ncnc(N)c34)C2)s1 (stereo partly drawn) [Example 1052, (R)-2-(4-amino-5-(3-(4-((4-(azetidin-1-yl)cyclohexyl)oxy)-2-methylthiazole-5-carboxamido)piperidin-1-yl)pyrrolo[2,1-f][1,2,4]triazin-7-yl)thiazole-4-carboxamide] |
| 887 | – | CCOC1=C(C(=O)N[C@@H]2CCCN(c3cc(C4=CCN(C(C)=O)C4)n4ncnc(N)c34)C2)CN(CC(F)(F)F)C1=O [Example 759, (R)-N-(1-(7-(1-acetyl-2,5-dihydro-1H-pyrrol-3-yl)-4-aminopyrrolo[2,1-f][1,2,4]triazin-5-yl)piperidin-3-yl)-4-ethoxy-5-oxo-1-(2,2,2-trifluoroethyl)-2,5-dihydro-1H-pyrrole-3-carboxamide] |
| 0.9 | – | COc1cc(-c2cc(N3CCC[C@@H](NC(=O)c4sc(C)nc4OC4CCC(N5CCC5)CC4)C3)c3c(N)ncnn23)ccn1 (stereo partly shown) [Example 1038] |
| – | 117 | CC(=O)N1CC=C(c2cc(N3CCC[C@@H](NC(=O)c4sc5ccc(C#N)cc5c4OC4CCN(C(=O)OC(C)(C)C)CC4)C3)c3c(N)ncnn23)C1 [Example 676, tert-butyl (R)-4-((2-((1-(7-(1-acetyl-2,5-dihydro-1H-pyrrol-3-yl)-4-aminopyrrolo[2,1-f][1,2,4]triazin-5-yl)piperidin-3-yl)carbamoyl)-5-cyanobenzo[b]thiophen-3-yl)oxy)piperidine-1-carboxylate] |
| – | 823 | CS(=O)(=O)c1ccc(-c2cc(N3CCC[C@@H](C(=O)NCc4ccccc4)C3)c3c(N)ncnn23)cc1 [Example 106, (R)-1-(4-amino-7-(4-(methylsulfonyl)phenyl)pyrrolo [2,1-f][1,2,4]triazin-5-yl)-N-benzylpiperidine-3-carboxamide] |
